Structures can show the parent of a compound that is named as a salt.
What was measured:
[1] = Pharmacokinetic study of colon contents and plasma after oral dose of conjugate; format: in vivo, male C57B3L/6 mice; conditions: for Cmax: male
Experimental: To confirm that the active agent component of the conjugate is released in the gastrointestinal tract, a pharmacokinetic study was conducted in male C57B3L/6 mice examining conjugate and active agent of concentrations in both the colon contents and plasma after oral dose of conjugate. Conjugate and active agent of were quantified by LCMS at 0 (pre-dose), 0.25, 0.5, 1, 2, 4, 6, 8, 12, and 24 hours post-dose of compound.

in vivo = assay: in vivo; parameters: species or system Sprague-Dawley rats; conditions: Sprague-Dawley, rat
Experimental: Sprague-Dawley rats (three rats per compound) were treated with a single intravenous (IV) 1 mg/kg dose or orally (PO) a single 10 mg/kg dose. Plasma concentrations of the conjugates were determined by LCMS at 5 minutes, 15 minutes, 30 minutes, 1 hour, 2 hours, 4 hours, 8 and 24 hours post compound administration. […] In addition, the plasma exposure and bioavailability of the active agent of was lower when dosed as a conjugate instead of the active agent alone.

CutC/D enzyme = assay: Acute mouse model (plasma TMAO on choline diet); format: in vivo, male C57BL/6 mice
In short: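 Male C57BL/6 mice fed a diet with 1.0% choline (g/g) received compound in water by oral gavage once daily on days 1–3. Plasma taken 20 h after the last dose was protein-precipitated and TMAO quantified by LC-MS/MS against a 0.05-100 μM d9-TMAO calibration curve in control plasma.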

[2] = format: in vitro ADME; conditions: simulated gi fluid, 1 µM, pH 6.7
Experimental: This assay was used to assess the stability of a conjugate in a small intestine.
Phosphate buffer was prepared by dissolving 0.42 g of sodium hydroxide pellets and 3.95 g of monobasic sodium phosphate monohydrate and 6.19 g of sodium chloride in ultrapure water (MilliQ®, Millipore Sigma, Darmstadt, Germany). The pH was adjusted to 6.7 using aq. HCl and aq. NaOH, as necessary, and the solution was diluted with ultrapure water to produce 1 L of the pH 6.7 buffer.
112 mg FaSSIF powder (Biorelevant™, London, UK) was dissolved in 50 mL of the pH 6.7 buffer. 2 to 3 mL of the resulting solution were then added to 500 mg pancreatin (Millipore Sigma, Darmstadt, Germany). The resulting mixture was agitated by finger tapping the vessel containing the mixture until milky suspension formed. At this time, the remainder of the 50 mL FaSSiF/pH 6.7 buffer solution was added. The resulting suspension was flipped upside down 10 times to produce SIF, which was used fresh.
(§1) Test compounds were dissolved in DMSO stock to 1 mM. An aliquot of the DMSO stock solution was removed and diluted in the SIF media in 15 mL falcon tubes to produce a mixture with a tested compound concentration of 1 μM. A 1 mL aliquot was immediately removed and diluted once with 1 volume of acetonitrile for T0 timepoint. The mixture was sealed and agitated at 37° C. in an incubator. Aliquots (1 mL) were removed at regular intervals and immediately quenched by the addition of 1 volume of acetonitrile. The resulting samples were analyzed by LCMS to determine degradation rates.

[3] = format: in vitro ADME; conditions: simulated gi fluid, 1 µM, pH 1.6
Experimental: This assay was used to assess the stability of a conjugate in a stomach.
Medium was prepared by dissolving 2 g of sodium chloride in 0.6 L in ultrapure water (MilliQ®, Millipore Sigma, Darmstadt, Germany). The pH was adjusted to 1.6 with 1N hydrochloric acid, and the volume was then adjusted to 1 L with purified water.
60 mg FaSSIF powder (Biorelevant™, London, UK) were dissolved in 500 mL buffer (above). Pepsin was added (0.1 mg/mL) (Millipore Sigma, Darmstadt, Germany), and the solution was stirred. The resulting SGF media were used fresh for each experiment.
as §1, with “SGF Media” for “SIF media”, “generate” for “produce”, “total” for “mixture with a tested”, “mixed” for “agitated”, “rates in SGF.” for “rates.”

[4] = biological target: CutC from Proteus mirabilis (Proteus mirabilis, UniProt B4EYG1); assay: Cell-based assay for TMA production from a native producer (P. mirabilis); conditions: d9-TMA from 1 mM d9-choline, 5 h, 37° C.; value 10 given when no fit or % TMA remaining at 10 μM higher than 15%; read-out: Average IC50 Whole cell P. mirabilis
Sequence of CutC from Proteus mirabilis (B4EYG1 entry or part of it): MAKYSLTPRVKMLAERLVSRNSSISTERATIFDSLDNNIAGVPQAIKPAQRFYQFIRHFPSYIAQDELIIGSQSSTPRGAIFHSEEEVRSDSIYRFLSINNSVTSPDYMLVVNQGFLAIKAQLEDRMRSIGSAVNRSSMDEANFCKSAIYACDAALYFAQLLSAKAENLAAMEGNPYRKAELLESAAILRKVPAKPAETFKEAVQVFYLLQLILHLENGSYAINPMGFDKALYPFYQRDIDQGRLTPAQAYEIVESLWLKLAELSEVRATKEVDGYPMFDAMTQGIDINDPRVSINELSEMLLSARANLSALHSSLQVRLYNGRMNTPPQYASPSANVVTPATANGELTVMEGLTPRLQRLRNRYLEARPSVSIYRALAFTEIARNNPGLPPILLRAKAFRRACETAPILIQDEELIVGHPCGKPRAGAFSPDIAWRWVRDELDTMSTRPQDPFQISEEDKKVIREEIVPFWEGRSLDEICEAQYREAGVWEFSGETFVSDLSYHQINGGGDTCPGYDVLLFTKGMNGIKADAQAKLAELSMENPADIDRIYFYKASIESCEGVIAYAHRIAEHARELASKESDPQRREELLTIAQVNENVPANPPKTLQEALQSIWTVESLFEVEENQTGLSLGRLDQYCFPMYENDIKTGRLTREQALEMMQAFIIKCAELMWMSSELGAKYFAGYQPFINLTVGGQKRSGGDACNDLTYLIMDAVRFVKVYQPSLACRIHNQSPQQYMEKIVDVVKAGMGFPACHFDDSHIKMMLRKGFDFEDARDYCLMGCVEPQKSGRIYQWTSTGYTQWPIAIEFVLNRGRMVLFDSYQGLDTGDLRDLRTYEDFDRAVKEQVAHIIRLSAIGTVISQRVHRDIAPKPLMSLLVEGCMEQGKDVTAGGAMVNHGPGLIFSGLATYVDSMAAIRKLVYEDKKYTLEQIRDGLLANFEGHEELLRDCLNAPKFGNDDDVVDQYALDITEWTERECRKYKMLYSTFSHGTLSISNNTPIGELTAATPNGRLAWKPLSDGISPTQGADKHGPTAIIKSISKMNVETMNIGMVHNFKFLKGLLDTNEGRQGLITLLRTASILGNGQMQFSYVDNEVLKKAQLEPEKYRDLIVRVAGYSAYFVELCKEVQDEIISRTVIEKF
Sequence of CutC from Proteus mirabilis (B4EYG0 entry or part of it, further chain): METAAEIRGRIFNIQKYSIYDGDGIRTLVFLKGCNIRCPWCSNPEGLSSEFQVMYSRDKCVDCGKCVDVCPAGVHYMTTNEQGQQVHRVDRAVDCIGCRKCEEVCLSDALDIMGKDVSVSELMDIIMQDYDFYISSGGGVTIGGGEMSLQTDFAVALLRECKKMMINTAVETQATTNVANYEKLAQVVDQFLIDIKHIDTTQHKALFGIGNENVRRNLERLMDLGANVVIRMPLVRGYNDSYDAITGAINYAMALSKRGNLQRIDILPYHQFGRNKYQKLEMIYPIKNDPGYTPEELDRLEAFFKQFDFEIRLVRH
In short: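 Overnight anaerobic cultures of P. mirabilis or C. sporogenes, grown in BHI with 1 mM choline, were diluted and given 1 mM (trimethyl-d9)-choline plus compound at 10 μM final. After 5 h at 37° C., d9-TMA was quantified by LCMS.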

[5] = format: in vitro ADME; conditions: 1 µM
Experimental: This assay was used to assess the stability of a conjugate in a large intestine.
All experiments were performed in an anaerobic chamber containing 90% nitrogen, 5% hydrogen and 5% carbon dioxide. Colonic material was resuspended as a slurry (15% w/v final concentration) in pre-reduced, anaerobically sterilized dilution blanks (Anaerobe Systems AS-908). The colonic material was then inoculated into 96 well plates containing YCFAC media (Anaerobe Systems AS-680, 6.7 μL slurry into 1 mL total media). A compound was added to each individual well to reach a final analyte concentration of 1 μM, and the material was mixed by pipetting. Each sample was removed after set timepoints (0, 120, 240, 480, 1440, 2880 minutes after initiation of the assay), quenched with acetonitrile containing internal standard, and analyzed by LCMS.

CC(=O)OCC1OC(OCC[N+](C)(C)CCl)C(OC(C)=O)C(OC(C)=O)C1OC(C)=O.[I-] (stereo in doubt) [Compound 78, N-(chloromethyl)-N,N-dimethyl-2-(((2S,3S,4R,5S,6S)-3,4,5-triacetoxy-6-(acetoxymethyl)tetrahydro-2H-pyran-2-yl)oxy)ethan-1-aminium Iodide]
Cmax ([1]; C57B3L/6, mouse, in vivo, po): 70 nM
Plasma Cmax ([1]; mouse, in vivo, po): Not
Cmax (in vivo; iv, 1 mg/kg): 8310 nM
% F (in vivo; po, 10 mg/kg): 1.91%
Cmax (in vivo; po, 10 mg/kg): 130 nM
bioavailability (in vivo; po, 10 mg/kg): 0.99%

C#CC[N+](C)(C)CCO[C@@H]1OC[C@@H](OC(C)=O)[C@H](OC(C)=O)[C@H]1OC(C)=O.[I-] [Compound 8, N,N-dimethyl-N-(2-(((3R,4S,5R)-3,4,5-triacetoxytetrahydro-2H-pyran-2-yl)oxy)ethyl)prop-2-yn-1-aminium iodideiodideiodideiodideiodide]
% change from vehicle control + choline diet (CutC/D enzyme; Table 4d, 100 mg/kg oral gavage days 1-3): −33%
Mean plasma TMAO (CutC/D enzyme; Table 4d, 100 mg/kg oral gavage days 1-3, plasma 20 h after last gavage): 12.5 µM
Assay 2- FaSSIF Stability: % Remaining at 4 hr [2]: 113.28%
Assay 1- FaSSGF Stability: % Remaining at 1 hr [3]: 105.93%
IC50 [4]: ≥ 10 µM
Assay 3- Colonic Material Stability Assay % Remaining at 24 hr [5]: 17%

C#CC[N+](C)(C)CC(=O)O[C@H]1CO[C@H]2[C@@H]1OC[C@H]2O.O=C([O-])C(F)(F)F [Compound 70, N-(2-(((3S,3aR,6R,6aR)-6-hydroxyhexahydrofuro[3,2-b]furan-3-yl)oxy)-2-oxoethyl)-N,N-dimethylprop-2-yn-1-aminium trifluoroacetate]
Assay 2- FaSSIF Stability: % Remaining at 4 hr [2]: 28.06%
Assay 1- FaSSGF Stability: % Remaining at 1 hr [3]: 98.36%
IC50 [4]: ≥ 10 µM
Assay 3- Colonic Material Stability Assay % Remaining at 24 hr [5]: 47%

Br.C#CC[N+](C)(C)CC(=O)O[C@@H]1CO[C@H]2[C@@H]1OC[C@@H]2O [Compound 73, N-(2-(((3R,3aR,6S,6aR)-6-hydroxyhexahydrofuro[3,2-b]furan-3-yl)oxy)-2-oxoethyl)-N,N-dimethylprop-2-yn-1-aminium bromide]
Assay 2- FaSSIF Stability: % Remaining at 4 hr [2]: 62.73%
Assay 1- FaSSGF Stability: % Remaining at 1 hr [3]: 107.49%
IC50 [4]: ≥ 10 µM
Assay 3- Colonic Material Stability Assay % Remaining at 24 hr [5]: 44%

C#CC[N+](C)(C)CCO[C@H]1CO[C@H]2[C@@H]1OC[C@H]2O [Compound 74, N-(2-(((3S,3aR,6R,6aR)-6-hydroxyhexahydrofuro[3,2-b]furan-3-yl)oxy)ethyl)-N,N-dimethylprop-2-yn-1-aminium trifluoroacetate]
Assay 2- FaSSIF Stability: % Remaining at 4 hr [2]: 121.56%
Assay 1- FaSSGF Stability: % Remaining at 1 hr [3]: 107.3%
IC50 [4]: ≥ 10 µM
Assay 3- Colonic Material Stability Assay % Remaining at 24 hr [5]: 99%

C[N+](C)(CF)CCO[C@@H]1O[C@H](CO)[C@@H](O)[C@H](O)[C@H]1O.[Cl-] [Compound 98, (fluoromethyl)dimethyl(2-{[(2R,3R,4S,5S,6R)-3,4,5-trihydroxy-6-(hydroxymethyl)oxan-2-yl]oxy}ethyl)azanium Chloride]
% change from vehicle control + choline diet (CutC/D enzyme; Table 4f, 3.70 mg/kg oral gavage days 1-3): −8%
Mean plasma TMAO (CutC/D enzyme; Table 4f, 3.70 mg/kg oral gavage days 1-3, plasma 20 h after last gavage): 29.7 µM
% change from vehicle control + choline diet (CutC/D enzyme; Table 4f, 11.0 mg/kg oral gavage days 1-3): 6%
Mean plasma TMAO (CutC/D enzyme; Table 4f, 11.0 mg/kg oral gavage days 1-3, plasma 20 h after last gavage): 34.3 µM
% change from vehicle control + choline diet (CutC/D enzyme; Table 4f, 36.6 mg/kg oral gavage days 1-3): −69%
Mean plasma TMAO (CutC/D enzyme; Table 4f, 36.6 mg/kg oral gavage days 1-3, plasma 20 h after last gavage): 10.1 µM
Cmax ([1]; C57B3L/6, mouse colon contents after oral dose of conjugate, compound measured = conjugate dosed, read-out: Colon Cmax): 21800 nM
Cmax ([1]; C57B3L/6, mouse plasma after oral dose of conjugate, compound measured = conjugate dosed, read-out: Plasma Cmax): 1300 nM
Cmax (in vivo; iv, 1 mg/kg): 23600 nM
Cmax (in vivo; po, 10 mg/kg): 306 nM
bioavailability (in vivo; po, 10 mg/kg): 0.72%

Reference: US20220041641A1, “QUATERNARY AMMONIUM SALTS AS INHIBITORS OF TRIMETHYLAMINE PRODUCTION” (Senda Biosciences, Inc., priority 2018, published 2022)
